According to article PMC6230509 (Neuropharmacology, 2018):
Where two headings read alike, the source gives them in different places.

Legend:
[1] = molecular target: T1, α2B (Homo sapiens, UniProt P18089); assay: NIMH PDSP radioligand competition binding, α2B
T1 sequence (P18089 1-450): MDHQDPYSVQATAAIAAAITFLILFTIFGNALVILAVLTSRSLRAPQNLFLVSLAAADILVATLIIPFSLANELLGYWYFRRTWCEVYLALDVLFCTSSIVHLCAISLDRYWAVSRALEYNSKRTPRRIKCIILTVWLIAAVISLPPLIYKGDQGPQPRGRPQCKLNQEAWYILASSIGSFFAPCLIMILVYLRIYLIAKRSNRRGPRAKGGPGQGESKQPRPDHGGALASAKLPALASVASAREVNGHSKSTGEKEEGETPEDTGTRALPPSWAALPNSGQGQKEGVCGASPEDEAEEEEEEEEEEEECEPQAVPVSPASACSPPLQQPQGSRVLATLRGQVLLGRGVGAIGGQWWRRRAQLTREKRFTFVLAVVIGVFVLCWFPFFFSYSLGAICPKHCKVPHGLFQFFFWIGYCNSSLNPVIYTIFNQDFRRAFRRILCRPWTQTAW

[2] = molecular target: 5-HT5A (Homo sapiens, UniProt P47898); assay: NIMH PDSP radioligand competition binding, 5-HT5A
Chain of 5-HT5A (P47898 whole entry): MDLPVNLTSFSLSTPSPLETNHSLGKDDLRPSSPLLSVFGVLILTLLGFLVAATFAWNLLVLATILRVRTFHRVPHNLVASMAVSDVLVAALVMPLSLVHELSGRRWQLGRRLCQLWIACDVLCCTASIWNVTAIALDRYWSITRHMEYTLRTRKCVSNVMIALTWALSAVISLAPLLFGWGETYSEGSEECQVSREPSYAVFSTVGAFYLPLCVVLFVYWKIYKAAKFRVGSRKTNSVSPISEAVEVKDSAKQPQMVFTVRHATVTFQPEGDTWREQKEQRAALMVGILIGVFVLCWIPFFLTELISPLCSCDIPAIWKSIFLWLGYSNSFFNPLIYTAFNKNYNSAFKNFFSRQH

[3] = molecular target: T2, α2A (Homo sapiens, UniProt P08913); assay: NIMH PDSP radioligand competition binding, α2A
T2 sequence (P08913 1-465): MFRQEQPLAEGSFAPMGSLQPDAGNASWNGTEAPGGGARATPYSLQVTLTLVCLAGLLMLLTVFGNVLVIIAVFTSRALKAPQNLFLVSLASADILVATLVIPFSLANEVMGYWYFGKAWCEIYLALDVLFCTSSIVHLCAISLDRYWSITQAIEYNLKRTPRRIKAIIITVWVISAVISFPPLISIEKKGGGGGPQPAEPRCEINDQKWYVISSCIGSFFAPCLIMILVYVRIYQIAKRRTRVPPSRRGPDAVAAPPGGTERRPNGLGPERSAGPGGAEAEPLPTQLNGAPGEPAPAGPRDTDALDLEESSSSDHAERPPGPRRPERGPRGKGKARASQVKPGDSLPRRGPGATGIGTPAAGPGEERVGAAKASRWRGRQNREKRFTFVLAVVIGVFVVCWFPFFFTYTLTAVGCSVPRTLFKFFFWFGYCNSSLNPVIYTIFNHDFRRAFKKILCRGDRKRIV

[4] = molecular target: D2 (Homo sapiens, UniProt P14416); assay: NIMH PDSP radioligand competition binding, D2
Chain of D2 (P14416 whole entry): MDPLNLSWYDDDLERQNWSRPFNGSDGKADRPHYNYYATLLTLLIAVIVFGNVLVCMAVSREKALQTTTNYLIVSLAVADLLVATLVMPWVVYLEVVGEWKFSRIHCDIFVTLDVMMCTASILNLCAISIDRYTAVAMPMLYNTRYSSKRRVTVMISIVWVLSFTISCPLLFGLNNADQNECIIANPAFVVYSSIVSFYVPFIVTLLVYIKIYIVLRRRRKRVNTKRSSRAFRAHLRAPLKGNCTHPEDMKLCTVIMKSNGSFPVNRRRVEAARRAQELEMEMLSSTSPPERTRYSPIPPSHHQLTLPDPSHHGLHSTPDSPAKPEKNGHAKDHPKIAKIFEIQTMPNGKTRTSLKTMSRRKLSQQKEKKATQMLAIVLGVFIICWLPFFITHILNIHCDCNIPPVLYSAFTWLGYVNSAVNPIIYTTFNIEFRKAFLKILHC

[5] = molecular target: H1 (Homo sapiens, UniProt P35367); assay: NIMH PDSP radioligand competition binding, H1
Chain of H1 (P35367 whole entry): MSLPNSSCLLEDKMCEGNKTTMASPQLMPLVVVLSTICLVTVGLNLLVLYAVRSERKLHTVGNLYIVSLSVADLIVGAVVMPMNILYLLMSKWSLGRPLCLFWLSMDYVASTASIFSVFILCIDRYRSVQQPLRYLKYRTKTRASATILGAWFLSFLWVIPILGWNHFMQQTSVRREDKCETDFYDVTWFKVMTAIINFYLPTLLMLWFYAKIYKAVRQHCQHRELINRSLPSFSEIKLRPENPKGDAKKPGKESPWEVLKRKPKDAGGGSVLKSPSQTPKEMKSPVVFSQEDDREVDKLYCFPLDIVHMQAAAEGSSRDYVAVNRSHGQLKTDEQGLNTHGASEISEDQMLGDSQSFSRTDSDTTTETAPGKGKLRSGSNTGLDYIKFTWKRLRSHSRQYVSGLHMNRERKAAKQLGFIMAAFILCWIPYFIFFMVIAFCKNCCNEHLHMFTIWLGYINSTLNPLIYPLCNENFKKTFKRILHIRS

[6] = molecular target: μ-opioid receptor (MOR) (Homo sapiens, UniProt P35372); assay: NIMH PDSP radioligand competition binding, MOR
Chain of μ-opioid receptor (MOR) (P35372 whole entry): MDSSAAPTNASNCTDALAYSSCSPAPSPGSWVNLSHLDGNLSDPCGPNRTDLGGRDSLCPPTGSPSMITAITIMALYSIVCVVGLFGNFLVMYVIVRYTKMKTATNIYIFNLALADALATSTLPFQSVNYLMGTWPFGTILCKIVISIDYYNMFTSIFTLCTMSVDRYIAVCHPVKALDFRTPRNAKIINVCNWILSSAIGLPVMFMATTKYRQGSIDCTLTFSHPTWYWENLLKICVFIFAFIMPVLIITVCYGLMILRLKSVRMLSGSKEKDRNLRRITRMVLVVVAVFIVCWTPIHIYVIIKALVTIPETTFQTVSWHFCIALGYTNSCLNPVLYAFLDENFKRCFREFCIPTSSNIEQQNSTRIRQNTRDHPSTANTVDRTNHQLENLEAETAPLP

[7] = molecular target: 5-HT1B (Homo sapiens, UniProt P28222); assay: NIMH PDSP radioligand competition binding, 5-HT1B
Chain of 5-HT1B (P28222 whole entry): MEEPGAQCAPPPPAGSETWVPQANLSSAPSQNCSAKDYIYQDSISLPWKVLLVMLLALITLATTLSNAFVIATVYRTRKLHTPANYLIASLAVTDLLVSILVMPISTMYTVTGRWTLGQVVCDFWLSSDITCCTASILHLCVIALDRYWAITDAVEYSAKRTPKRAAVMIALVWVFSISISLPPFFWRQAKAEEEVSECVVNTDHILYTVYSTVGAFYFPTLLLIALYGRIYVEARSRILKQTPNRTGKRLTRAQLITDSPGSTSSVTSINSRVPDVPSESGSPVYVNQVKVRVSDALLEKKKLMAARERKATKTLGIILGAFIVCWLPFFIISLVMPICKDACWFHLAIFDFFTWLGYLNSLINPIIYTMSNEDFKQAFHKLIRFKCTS

[8] = molecular target: T3, α2C (Homo sapiens, UniProt P18825); assay: NIMH PDSP radioligand competition binding, α2C
T3 sequence (P18825 1-462): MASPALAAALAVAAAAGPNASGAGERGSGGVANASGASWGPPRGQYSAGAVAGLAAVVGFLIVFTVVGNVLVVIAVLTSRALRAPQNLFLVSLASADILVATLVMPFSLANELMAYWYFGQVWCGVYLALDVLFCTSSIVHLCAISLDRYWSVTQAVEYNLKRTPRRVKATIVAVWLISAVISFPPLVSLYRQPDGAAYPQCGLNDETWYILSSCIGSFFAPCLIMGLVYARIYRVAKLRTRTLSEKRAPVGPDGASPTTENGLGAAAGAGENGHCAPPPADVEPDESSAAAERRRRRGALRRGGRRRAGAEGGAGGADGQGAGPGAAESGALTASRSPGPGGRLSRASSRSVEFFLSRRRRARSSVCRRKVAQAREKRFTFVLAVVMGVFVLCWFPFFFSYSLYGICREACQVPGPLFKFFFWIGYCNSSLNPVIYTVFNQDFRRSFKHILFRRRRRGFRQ

[9] = tested on: head twitch response (5-HT2A receptor-mediated); assay: Head twitch response; type: in vivo, C57BL/6J mice; conditions: for activity in the HTR assay (in words): C57BL/6J mice, IP, within the dose range tested; for ED50: Mus musculus, ip
[10] = molecular target: T4, α1D (Homo sapiens, UniProt P25100); assay: NIMH PDSP radioligand competition binding, α1D
T4 sequence (P25100 1-572): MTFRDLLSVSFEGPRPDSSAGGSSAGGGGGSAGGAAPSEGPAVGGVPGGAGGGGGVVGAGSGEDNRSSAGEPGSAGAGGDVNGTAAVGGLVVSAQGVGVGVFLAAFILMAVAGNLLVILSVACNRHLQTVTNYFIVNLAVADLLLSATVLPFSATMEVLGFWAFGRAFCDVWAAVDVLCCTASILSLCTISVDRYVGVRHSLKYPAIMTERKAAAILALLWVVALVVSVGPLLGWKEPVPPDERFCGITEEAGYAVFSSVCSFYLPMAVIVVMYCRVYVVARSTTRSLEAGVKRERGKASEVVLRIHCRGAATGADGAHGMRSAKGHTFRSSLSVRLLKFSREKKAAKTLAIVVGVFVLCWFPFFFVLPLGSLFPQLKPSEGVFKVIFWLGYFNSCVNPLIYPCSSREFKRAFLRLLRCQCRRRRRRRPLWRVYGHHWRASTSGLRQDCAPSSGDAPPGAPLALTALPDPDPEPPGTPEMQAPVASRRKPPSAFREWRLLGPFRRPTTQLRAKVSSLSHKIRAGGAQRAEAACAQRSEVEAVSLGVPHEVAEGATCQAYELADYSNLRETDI

[11] = molecular target: 5-HT1E (Homo sapiens, UniProt P28566); assay: NIMH PDSP radioligand competition binding, 5-HT1E
Chain of 5-HT1E (P28566 whole entry): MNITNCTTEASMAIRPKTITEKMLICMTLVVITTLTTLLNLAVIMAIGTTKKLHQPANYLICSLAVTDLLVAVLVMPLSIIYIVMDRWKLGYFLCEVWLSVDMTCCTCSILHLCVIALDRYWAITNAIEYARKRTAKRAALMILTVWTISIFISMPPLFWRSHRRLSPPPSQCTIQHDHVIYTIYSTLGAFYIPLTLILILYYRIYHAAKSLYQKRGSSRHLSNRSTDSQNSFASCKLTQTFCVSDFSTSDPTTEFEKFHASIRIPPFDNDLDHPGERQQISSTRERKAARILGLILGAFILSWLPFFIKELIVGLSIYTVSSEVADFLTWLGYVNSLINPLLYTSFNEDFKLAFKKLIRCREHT

[12] = molecular target: 5-HT2B (Homo sapiens, UniProt P41595); assay: NIMH PDSP radioligand competition binding, 5-HT2B
Chain of 5-HT2B (P41595 whole entry): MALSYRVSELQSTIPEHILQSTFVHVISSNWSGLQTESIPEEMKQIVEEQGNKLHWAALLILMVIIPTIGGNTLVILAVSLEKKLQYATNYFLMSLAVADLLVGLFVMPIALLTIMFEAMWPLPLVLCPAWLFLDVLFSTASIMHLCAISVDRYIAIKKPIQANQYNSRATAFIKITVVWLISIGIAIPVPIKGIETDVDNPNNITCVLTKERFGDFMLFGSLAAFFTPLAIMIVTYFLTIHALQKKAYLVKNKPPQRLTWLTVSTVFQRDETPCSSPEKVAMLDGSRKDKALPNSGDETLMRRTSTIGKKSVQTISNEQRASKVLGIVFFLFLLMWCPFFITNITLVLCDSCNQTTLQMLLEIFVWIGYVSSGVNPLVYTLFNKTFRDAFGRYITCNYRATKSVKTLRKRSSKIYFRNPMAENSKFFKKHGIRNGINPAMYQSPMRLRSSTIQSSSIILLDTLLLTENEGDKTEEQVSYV

[13] = molecular target: 5-HT2A (Homo sapiens, UniProt P28223); assay: NIMH PDSP radioligand competition binding, 5-HT2A
Chain of 5-HT2A (P28223 whole entry, looked up): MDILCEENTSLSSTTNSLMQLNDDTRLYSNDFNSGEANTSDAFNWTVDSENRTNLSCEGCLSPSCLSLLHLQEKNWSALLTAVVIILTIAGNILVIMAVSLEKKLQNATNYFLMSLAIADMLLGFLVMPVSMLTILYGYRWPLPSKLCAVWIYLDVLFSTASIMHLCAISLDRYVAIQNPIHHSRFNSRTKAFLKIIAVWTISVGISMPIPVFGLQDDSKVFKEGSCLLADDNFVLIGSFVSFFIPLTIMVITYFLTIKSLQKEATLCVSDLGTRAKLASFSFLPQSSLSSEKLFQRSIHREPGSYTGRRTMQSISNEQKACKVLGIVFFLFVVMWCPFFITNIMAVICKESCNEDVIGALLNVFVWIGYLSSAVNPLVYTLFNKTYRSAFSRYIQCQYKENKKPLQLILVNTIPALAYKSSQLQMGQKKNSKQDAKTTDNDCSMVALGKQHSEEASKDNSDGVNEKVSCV

[14] = 0.875 mg/kg IP, duration 30 min
[15] = read-out: ED50 (95% CI) (mg/kg)
[16] = read-out: ED50 (95% CI) (μmol/kg)

Compound	Ki [1] [nM]	Ki [2] [nM]	Ki [3] [nM]	Ki [4] [nM]	Ki [5] [nM]	Ki [6] [nM]	Ki [7] [nM]	Ki [8] [nM]	HTR Counts (mean ± SEM) [9, 14]	HTR Counts (mean ± SEM) ([9]; 1.75 mg/kg IP, duration 30 min)	HTR Counts (mean ± SEM) ([9]; 3.5 mg/kg IP, duration 30 min)	HTR Counts (mean ± SEM) ([9]; 7 mg/kg IP, duration 30 min)	HTR Counts (mean ± SEM) ([9]; 14 mg/kg IP, duration 30 min)	activity in the HTR assay (in words) [9]	Ki [10] [nM]	Ki [11] [nM]	Ki [12] [nM]	Ki [13] [nM]	ED50 [9, 15] [mg/kg]	ED50 [9, 16] [µmol/kg]	other results
C=CCN(CC=C)CCc1c(-c2ccccc2)[nH]c2ccccc12 [2-Ph-DALT, 2-phenyl-N,N-diallyltryptamine]	78	1670	85	388	79	> 10000	273	159	2.8 ± 0.5	3.6 ± 1.3	1.4 ± 0.5	2.0 ± 0.5	1.2 ± 0.5	abolished activity	243	> 10000	192	13	–	–	activity in the HTR assay (in words) ([9]; listed as 2-Phenyl-DALT): did not induce the HTR; 5-HT2A binding affinity, fold higher than the affinity of DALT [13]: 54 fold; 5-HT2A binding affinity, fold higher than the affinity of any other DALT derivative ([13]; relative to any other DALT derivative): at least 10 fold
C=CCN(CC=C)CCc1c[nH]c2cccc(OC(C)=O)c12 [4-AcO-DALT, 4-acetoxy-N,N-diallyltryptamine]	170	5840	342	> 10000	353	> 10000	> 10000	748	10.4 ± 1.4	42.0 ± 9.5	39.0 ± 14.1	65.0 ± 8.4	47.8 ± 10.0	active	> 10000	467	63	565	1.99	4.8	–
C=CCN(CC=C)CCc1c[nH]c2cccc(O)c12 [4-HO-DALT, 4-hydroxy-N,N-diallyltryptamine]	> 10000	> 10000	1210	> 10000	> 10000	> 10000	2490	> 10000	–	–	–	–	–	active	> 10000	238	2590	652	2.6	8.3	HTR Counts (mean ± SEM) ([9]; 0.875 mg/kg IP, duration 5 min): 4.0 ± 3.3; HTR Counts (mean ± SEM) ([9]; 1.75 mg/kg IP, duration 5 min): 9.2 ± 3.7; HTR Counts (mean ± SEM) ([9]; 3.5 mg/kg IP, duration 5 min): 28.6 ± 4.1; HTR Counts (mean ± SEM) ([9]; 7 mg/kg IP, duration 5 min): 31.6 ± 4.9; HTR Counts (mean ± SEM) ([9]; 14 mg/kg IP, duration 5 min): 24.6 ± 4.7
C=CCN(CC=C)CCc1c(C)[nH]c2ccc(F)cc12 [5-F-2-Me-DALT, 5-fluoro-2-methyl-N,N-diallyltryptamine]	108	1920	53	4420	435	> 10000	2010	184	6.2 ± 1.0	6.8 ± 0.9	5.8 ± 2.5	6.4 ± 1.6	7.2 ± 0.8	–	> 10000	1270	17	655	–	–	activity in the HTR assay (in words) ([9]; listed as 5-fluoro-2-methyl-DALT): did not induce the HTR
C=CCN(CC=C)CCc1c(C)[nH]c2ccc(OC)cc12 [5-MeO-2-Me-DALT, 5-methoxy-2-methyl-N,N-diallyltryptamine]	335	1820	189	> 10000	847	> 10000	2270	888	4.4 ± 0.2	7.4 ± 2.2	4.2 ± 1.0	4.2 ± 0.9	5.0 ± 1.4	–	2410	1590	241	1150	–	–	activity in the HTR assay (in words) ([9]; listed as 5-methoxy-2-methyl-DALT): did not induce the HTR
C=CCN(CC=C)CCc1c[nH]c2c(CC)cccc12 [7-Et-DALT, 7-ethyl-N,N-diallyltryptamine]	489	> 10000	141	> 10000	913	2670	> 10000	682	–	–	–	–	–	did not induce the HTR	> 10000	> 10000	65	1520	–	–	HTR Counts (mean ± SEM) ([9]; 15 mg/kg IP, duration 30 min): 9.8 ± 1.8
